In brackets after ≈: the same amount, converted by molar mass.
Tests used:
physchem = details: 22 °C, organic solvent or mixture, thermodynamic from solid, Solubility in mg/ml
Description: 100 μl n-butanol was added and the dispersion was stirred at ˜300 to 500 rpm by a magnetic stirrer at 21-23° C. n-Butanol was added 10 μl wise.
100 μl water saturated n-butanol (achieved from example 4) was added and the dispersion was stirred at ˜300 to 500 rpm by a magnetic stirrer at 21-23° C. n-Butanol was added 10 μl wise.
100 μl 25% aqueous NaCl solution saturated n-butanol (achieved from example 6) was added and the dispersion was stirred at ˜300 to 500 rpm by a magnetic stirrer at 21-23° C. n-Butanol was added 10 μl wise.
31.35 mg efavirenz (Angene Intemational Limited, China) was weighed into a 10 ml glass vial containing a 1 cm magnetic bar. 50 μl n-butanol was added and the dispersion was stirred at ˜300 to 500 rpm by a magnetic stirrer at 21-23° C. n-Butanol was added 10 μl wise.
30.57 mg efavirenz was weighed into a 10 ml glass vial containing a 1 cm magnetic bar. 50 μl water saturated n-butanol (achieved from example 4) was added and the dispersion was stirred at ˜300 to 500 rpm by a magnetic stirrer at 21-23° C. Water saturated n-butanol was added 10 μl wise till 250 μl. After 250 μl, 25 μl wise addition was used.
31.35 mg efavirenz was weighed into a 10 ml glass vial containing a 1 cm magnetic bar. 50 μl 25% aqueous NaCl solution saturated n-butanol (achieved from example 6) was added and the dispersion was stirred at ˜300 to 500 rpm by a magnetic stirrer at 21-23° C. […]

[1] = Telmisartan release profile, dissolution test using USP II dissolution tester, acetate buffer pH 4.0, 2 h; assay type: physicochemical; details: acetate buffer pH 4.0, USP II
Description: FIG. 2), Telmisartan release profile was analyzed by a dissolution test using a USP II dissolution tester (ERWEKA GmbH, Langen, Germany) at pH 4.0 acetate buffer for 2 h (shown in […]

Compound: Cc1ccc(-c2cc(C(F)(F)F)nn2-c2ccc(S(N)(=O)=O)cc2)cc1 [Celecoxib, celecoxib]
- solubility (physchem): 22 mg/mL (≈ 57.7 mM)

Compound: CCCc1nc2c(C)cc(-c3nc4ccccc4n3C)cc2n1Cc1ccc(-c2ccccc2C(=O)O)cc1 [Telmisartan pure active, Telmisartan]
- Release of Telmisartan ([1]; time 0 min): 0.040%
- Release of Telmisartan ([1]; time 5 min): 0.081%
- Release of Telmisartan ([1]; time 10 min): 0.148%
- Release of Telmisartan ([1]; time 15 min): 0.185%
- Release of Telmisartan ([1]; time 30 min): 0.240%
- Release of Telmisartan ([1]; time 45 min): 0.613%
- Release of Telmisartan ([1]; time 60 min): 0.310%
- Release of Telmisartan ([1]; time 90 min): 0.671%
- Release of Telmisartan ([1]; time 120 min): 0.343%
